From patent EP0650958A1, “Hydrazones of indane-triones and their application in therapy” (LABORATOIRE INNOTHERA Société Anonyme, priority 1993, dated 1995)
Counter-ions that a name gives are not always drawn.

Columns and labels:
[1] = test system: hyperperméabilité vasculaire induite par le zymosan; experiment: Vascular hyperpermeability induced by zymosan (extravasation of albumin or Evans blue); type: in vivo; settings: oral administration of 1-20 mg/kg
Excerpt: (§1) Pour l'étude in vivo, ils sont administrés par voie intra-veineuse sous forme de solution aqueuse pure, par voie intrapéritonéale sous forme de solution aqueuse contenant ou non du DMSO ou par voie orale en solution ou en suspension dans la carboxyméthylcellulose ou dans une solution aqueuse composée contenant du Tween^(R) et dans certains cas du DMSO (diméthylsulfoxyde).
La perméabilité vasculaire est étudiée in vivo et in vitro par la mesure de l'extravasation d'albumine ou de colorant liant l'albumine (Bleu Evans). In vivo, l'hyperperméabilité est induite par l'injection d'une solution d'histamine, de bradykinine ou de zymosan. Les modèles in vitro permettent de réaliser des hyperpressions (sur un territoire vasculaire isolé) et/ou des réactions vasculaires inflammatoires.
A titre illustratif, les composés des exemples 1, 3, 6 et 9 inhibent l'hyperperméabilité vasculaire induite par le zymosan après administration orale de 1-20 mg/kg.

veines saphènes de lapin = experiment: Contraction of isolated rabbit saphenous vein rings produced by KCl (depolarisation); settings: for augmentent les contractions des veines saphènes de lapin produites par le KCl: KCl 40 mM, compounds 10 nM à 30 mM; for EC50: increase of contractions produced by KCl 40 mM, read-out: DE₅₀
Excerpt: (§2) Pour l'étude in vitro, les composés sont solubilisés en solution aqueuse pure ou contenant du DMSO ou de l'alcool.
L'effet contractile est mesuré in vitro : • par la force de contraction développée par des anneaux vasculaires quiescents ou stimulés (soit électriquement soit par des agents physiologiques) et maintenus dans des conditions isométriques, • par la pression développée par des réseaux vasculaires perfusés à débit constant.
Les composés de l'invention et leurs sels éventuels augmentent la contraction des veines saphènes animales produite par la noradrénaline et la dépolarisation (solution hyperpotassique) sans affecter, dans la majorité des cas, les réponses contractiles artérielles. A titre illustratif, les composés des exemples 2, 3, 4, 7, et 9 (10 nM à 30 mM) augmentent de plus de 40 % (DE₅₀ ± 0,3 microM) les contractions des veines saphènes de lapin produites par le KCl (40 mM).

pleurésie chez le rat = experiment: Carrageenan-induced pleurisy (oedema and leukocyte migration); type: in vivo; settings: 5 mg/kg i.p. given twice, 6 hours after carrageenan injection into the pleural cavity
Excerpt: as §1
L'activité antiinflammatoire est démontrée par la mesure de l'inhibition de l'oedème et de la migration leucocytaire après induction d'une pleurésie chez le rat par injection de carragénine dans la cavité pleurale (Almeida et col., J. Pharmacol. Exp. Therap., 1980, 214 : 74).
Le composé des exemples 3 et 4 administrés deux fois en i.p. à la dose de 5 mg/kg inhibent l'oedème et la migration leucocytaire dans la cavité pleurale, 6 heures après injection de carragénine dans le modèle de la pleurésie chez le rat.

[2] = Free radical scavenging with DPPH as stable free radical; type: physicochemical; settings: DPPH model, in vitro
Excerpt: as §2
L'effet "piégeur de radicaux libres" global est étudié in vitro par un modèle utilisant le 1,1-diphényl-2-picrylhydrazyl (DPPH) comme radical libre stable, méthode dérivée de celle décrite par Lamaison et col., Plantes Médic. et Phytothérapie, XXII, 1988, 231-234.

| Compound | hyperperméabilité vasculaire induite par le zymosan [1] | augmentent les contractions des veines saphènes de lapin produites par le KCl (veines saphènes de lapin) [%] | EC50 (veines saphènes de lapin) [nM] | migration leucocytaire dans la cavité pleurale (pleurésie chez le rat) | oedème (pleurésie chez le rat) | effet antiradicalaire [2] |
| --- | --- | --- | --- | --- | --- | --- |
| O=C(NN=c1c(=O)c2ccccc2c1=O)n1cccc1 [exemple 1, 2.3-Dihydro-1.3-dioxo-2-(pyrrol-1-yl-carbonylhydrazono)-1H-indene] | inhibent |  |  |  |  |  |
| O=C(NN=c1c(=O)c2ccccc2c1=O)c1cccnc1 [exemple 2, 2.3-Dihydro-1.3-dioxo-2-[(3-pyridyl)carbonylhydrazono]-1H-indene, chlorhydrate] |  | > 40 | ~300 |  |  |  |
| Nc1ccc(C(=O)NN=c2c(=O)c3ccccc3c2=O)cc1 [exemple 3, 2-(4-Aminophenylcarbonylhydrazono)-2.3-dihydro-1.3-dioxo-1H-indene, chlorhydrate] | inhibent | > 40 | ~300 | inhibent | inhibent |  |
| O=C(NN=c1c(=O)c2ccccc2c1=O)c1cccnc1 [exemple 6, 2.3-Dihydro-1.3-dioxo-2-[(3-pyridyl)carbonylhydrazono]-1H-indene, maleate] | inhibent |  |  |  |  | présentent un effet antiradicalaire |
